According to ChEMBL document CHEMBL1201862, “PubChem BioAssay data set” (2004):
Activity calls are given as the source filed them.

Key:
[1] = target: T1, Leucine aminopeptidase (Plasmodium falciparum 3D7, UniProt Q8IL11); assay: P. falciparum M17LAP inhibitors, primary screen, biochemical, fluorogenic H-Leu-NHMec substrate, 1536-well (AID 1619); type: functional
T1 sequence (Q8IL11 whole entry): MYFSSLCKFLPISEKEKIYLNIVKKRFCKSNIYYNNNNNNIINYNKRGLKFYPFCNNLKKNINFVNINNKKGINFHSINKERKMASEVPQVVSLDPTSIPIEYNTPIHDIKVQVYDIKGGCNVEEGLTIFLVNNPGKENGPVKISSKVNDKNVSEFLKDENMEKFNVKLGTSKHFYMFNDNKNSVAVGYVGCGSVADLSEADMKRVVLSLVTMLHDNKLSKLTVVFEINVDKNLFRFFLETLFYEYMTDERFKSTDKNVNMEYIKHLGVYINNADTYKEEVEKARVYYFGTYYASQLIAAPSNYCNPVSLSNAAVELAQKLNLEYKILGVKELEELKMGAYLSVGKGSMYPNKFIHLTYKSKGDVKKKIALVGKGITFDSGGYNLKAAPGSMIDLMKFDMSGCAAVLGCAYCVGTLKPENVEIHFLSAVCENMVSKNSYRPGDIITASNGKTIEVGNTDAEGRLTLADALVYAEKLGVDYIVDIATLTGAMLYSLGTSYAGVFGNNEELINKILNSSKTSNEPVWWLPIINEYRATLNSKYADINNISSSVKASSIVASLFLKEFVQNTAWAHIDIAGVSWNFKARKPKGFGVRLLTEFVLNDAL

[2] = target: T2, Corticotropin-releasing factor receptor 2/Corticotropin-releasing factor-binding protein (Homo sapiens, UniProt P24387+Q13324); assay: Dose Response confirmation of uHTS hits for small molecule antagonists of the CRF-binding protein and CRF-R2 receptor complex.; type: functional; conditions: read-out: IC50_Mean
T2 sequence (Q13324 whole entry): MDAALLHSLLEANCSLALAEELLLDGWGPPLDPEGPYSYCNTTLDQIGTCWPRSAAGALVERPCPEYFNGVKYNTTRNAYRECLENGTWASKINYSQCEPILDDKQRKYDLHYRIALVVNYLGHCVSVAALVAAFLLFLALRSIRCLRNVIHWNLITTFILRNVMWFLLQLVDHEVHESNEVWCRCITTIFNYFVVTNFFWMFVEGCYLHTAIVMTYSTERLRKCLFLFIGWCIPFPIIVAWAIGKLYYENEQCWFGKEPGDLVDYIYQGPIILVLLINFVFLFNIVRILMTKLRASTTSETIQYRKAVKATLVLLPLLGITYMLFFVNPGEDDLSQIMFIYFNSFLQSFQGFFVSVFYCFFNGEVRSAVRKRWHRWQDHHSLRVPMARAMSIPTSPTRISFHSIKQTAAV
T2 sequence (P24387 whole entry): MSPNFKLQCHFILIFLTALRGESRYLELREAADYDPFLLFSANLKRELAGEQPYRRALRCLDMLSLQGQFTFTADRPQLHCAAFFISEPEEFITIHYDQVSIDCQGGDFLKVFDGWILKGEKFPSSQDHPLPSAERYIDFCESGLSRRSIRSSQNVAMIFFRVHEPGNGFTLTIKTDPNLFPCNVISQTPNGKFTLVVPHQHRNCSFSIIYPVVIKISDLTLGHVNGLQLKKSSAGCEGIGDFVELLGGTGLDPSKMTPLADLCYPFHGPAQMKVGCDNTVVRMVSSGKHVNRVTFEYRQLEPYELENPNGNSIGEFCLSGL

[3] = target: T2, Corticotropin-releasing factor receptor 2/Corticotropin-releasing factor-binding protein; assay: activators of CRF receptor 2 with binding protein – uHTS hits, confirmation (AID 602473); type: functional; conditions: read-out: EC50_Mean
[4] = blockers of CRF-binding protein–CRF-R2 complex – cell-based, uHTS hits, 384-well, dose response (AID 651639); type: functional, Homo sapiens; conditions: read-out: IC50_Mean
[5] = target: Genome polyprotein (dengue virus type 2, UniProt P29990); assay: flavivirus cap methylation enzyme inhibition – biochemical, confirmation dose response, primary screen (AID 588689); type: functional
[6] = target: T3, Polyadenylate-binding protein 1 (Homo sapiens, UniProt P11940); assay: MLLE binding blockers, Cy5 peptide tracer – biochemical, fluorescence polarization, Cy5-PAM2 peptide, secondary, miRNA deadenylation inhibitor project, dose response (AID 602260); type: functional; conditions: read-out: IC50_Mean
[7] = target: T3, Polyadenylate-binding protein 1; assay: MLLE domain peptide-binding blockers, IC50 – biochemical, fluorescence polarization, FITC-PAM2 peptide, dose response (AID 602259); type: functional; conditions: read-out: IC50_Mean
[8] = target: T4, Fatty acid synthase (Homo sapiens, UniProt P49327); assay: inhibition of human FAS-TE enzyme activity – biochemical, endpoint fluorescence intensity, uHTS hits, dose response (AID 624327); type: functional;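 further: fluorescence from hydrolysis of an O-methyl fluorescein acyl ester substrate by the enzyme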
[9] = target: T4, Fatty acid synthase; assay: inhibition of human FAS-TE enzyme activity – biochemical, kinetic fluorescence intensity, dose response (AID 624326); type: functional;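 further: rate of fluorescence rise from hydrolysis of a fluorogenic O-methyl fluorescein ester substrate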
[10] = tested on: BJ; assay: BJ-TERT fibroblast viability loss – cell-based, RAS-independent, luminescence, dose response (AID 1933); type: functional; conditions: Homo sapiens
[11] = tested on: BJ; assay: cells; type: functional, cell-based; conditions: Homo sapiens
[12] = tested on: BJ; assay: BJ-TERT-LT-ST fibroblast viability loss – cell-based, RAS-independent, luminescence, dose response (AID 1935); type: functional; conditions: Homo sapiens;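 further: BJ fibroblasts immortalized with TERT plus LT and ST oncogenes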
[13] = DRD fibroblast viability loss – cell-based, non-viral oncogenic, luminescence, dose response (AID 1934); type: functional; conditions: Homo sapiens
[14] = tested on: BJ; assay: growth inhibition of engineered Ras-driven BJ cells – cell-based, alamar blue fluorescence, cherrypicked samples, dose response (AID 2631); type: functional; conditions: Homo sapiens;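 further: confirmatory dose-response assay in RAS-dependent BJ fibroblasts engineered with TERT, LT and ST, with cytotoxicity read by fluorescence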
[15] = tested on: HEK293; assay: EBV LMP1 TES2 canonical NF-kB signalling blockers – cell-based, HEK293, luciferase, cherry-pick, dose response (AID 588343); type: functional; conditions: Homo sapiens
[16] = tested on: HEK293; assay: inhibition of NOD1-driven NF-kB reporter – cell-based, luminescence, uHTS, primary screen (AID 1578); type: functional; conditions: Homo sapiens
[17] = tested on: HEK293; assay: cells; type: functional, cell-based; conditions: Homo sapiens
[18] = tested on: H4; assay: Luminescence Cell-Based Dose Response HTS to Identify Activators of 5'UTR Stem-Loop Driven Prion Protein mRNA Translation in H4 Neuroglioblastoma Cells. [Related pubchem assays: 1829 (Project Summary), 1814 (Primary HTS)]; type: functional; conditions: Homo sapiens
[19] = tested on: HEK293; assay: cells; type: functional, cell-based; conditions: Homo sapiens; remark: listed apart in the source
[20] = target: Nucleotide-binding oligomerization domain-containing protein 2 (Homo sapiens, UniProt Q9HC29); assay: inhibition of NOD2-driven NF-kB reporter – cell-based, luminescence, uHTS, HEK293 (AID 1566); type: functional
[21] = tested on: HEK293; assay: NOD2 signaling inhibitors in MDP-stimulated cells, cell-based, uHTS, luminescence (AID 2001); type: functional; conditions: Homo sapiens
[22] = tested on: HEK293; assay: cells; type: functional, cell-based; conditions: Homo sapiens; remark: listed apart in the source
[23] = HEK-293T viability loss after treatment – luminescence, T-cell screen hits, cytotoxicity control for TCR NF-kB inhibitor project, dose response (AID 489026); type: functional, cell-based;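 further: cells exposed to compound about 14 hours before the viability readout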
[24] = target: Glucose-6-phosphate 1-dehydrogenase (Homo sapiens, UniProt P11413); assay: inhibition of Homo sapiens G6PD, dose series – biochemical, fluorescence, selectivity assay for P. falciparum G6PD inhibitor project, dose response (AID 504792); type: functional
[25] = target: T5, Probable nicotinate-nucleotide adenylyltransferase (Staphylococcus aureus (strain N315), UniProt P65502); type: functional, Staphylococcus aureus subsp. aureus N315;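 on IC50 Mean: confirmatory dose-response retesting of NadD inhibitor hits first found in an ultra-high-throughput screen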
[26] = target: T5, Probable nicotinate-nucleotide adenylyltransferase; type: functional, Staphylococcus aureus subsp. aureus N315; conditions: read-out: IC50_Mean
[27] = target: T6, Short transient receptor potential channel 4 (Mus musculus, UniProt Q9QUQ5); assay: block of DAMGO-driven TRPC4 calcium entry – cell-based, HEK293 TRPC4/mu-opioid, Fluo-4 calcium, dose response (AID 434942); type: functional;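 further: potency of inhibitors blocking the TRPC4 calcium response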
T6 sequence (Q9QUQ5 whole entry): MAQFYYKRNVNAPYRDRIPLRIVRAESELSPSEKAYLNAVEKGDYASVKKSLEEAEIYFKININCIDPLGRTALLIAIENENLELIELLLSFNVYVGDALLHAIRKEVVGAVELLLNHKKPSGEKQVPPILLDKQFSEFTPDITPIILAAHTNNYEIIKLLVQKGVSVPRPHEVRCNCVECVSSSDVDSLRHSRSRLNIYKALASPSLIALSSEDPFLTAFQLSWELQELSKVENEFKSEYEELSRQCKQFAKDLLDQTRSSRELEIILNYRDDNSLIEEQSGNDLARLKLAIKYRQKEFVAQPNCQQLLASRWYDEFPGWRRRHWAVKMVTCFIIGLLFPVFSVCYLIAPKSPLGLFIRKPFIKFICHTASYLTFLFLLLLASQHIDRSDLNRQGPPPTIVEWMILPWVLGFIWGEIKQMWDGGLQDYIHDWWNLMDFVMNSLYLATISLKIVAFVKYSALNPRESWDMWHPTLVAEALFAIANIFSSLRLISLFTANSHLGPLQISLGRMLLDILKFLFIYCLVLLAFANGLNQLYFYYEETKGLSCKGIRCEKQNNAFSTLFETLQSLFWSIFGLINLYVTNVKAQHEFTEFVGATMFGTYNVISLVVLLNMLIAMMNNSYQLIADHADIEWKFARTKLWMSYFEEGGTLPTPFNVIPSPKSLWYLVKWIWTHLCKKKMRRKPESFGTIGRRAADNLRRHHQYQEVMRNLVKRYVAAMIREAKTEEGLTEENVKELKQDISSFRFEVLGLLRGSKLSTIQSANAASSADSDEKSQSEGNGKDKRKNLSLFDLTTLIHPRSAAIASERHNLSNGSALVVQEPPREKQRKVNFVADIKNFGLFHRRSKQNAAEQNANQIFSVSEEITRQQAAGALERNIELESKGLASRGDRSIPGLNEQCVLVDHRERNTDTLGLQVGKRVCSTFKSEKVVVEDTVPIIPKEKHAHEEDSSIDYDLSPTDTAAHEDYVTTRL

Chain of Genome polyprotein (P29990 2492-3391 limits assumed): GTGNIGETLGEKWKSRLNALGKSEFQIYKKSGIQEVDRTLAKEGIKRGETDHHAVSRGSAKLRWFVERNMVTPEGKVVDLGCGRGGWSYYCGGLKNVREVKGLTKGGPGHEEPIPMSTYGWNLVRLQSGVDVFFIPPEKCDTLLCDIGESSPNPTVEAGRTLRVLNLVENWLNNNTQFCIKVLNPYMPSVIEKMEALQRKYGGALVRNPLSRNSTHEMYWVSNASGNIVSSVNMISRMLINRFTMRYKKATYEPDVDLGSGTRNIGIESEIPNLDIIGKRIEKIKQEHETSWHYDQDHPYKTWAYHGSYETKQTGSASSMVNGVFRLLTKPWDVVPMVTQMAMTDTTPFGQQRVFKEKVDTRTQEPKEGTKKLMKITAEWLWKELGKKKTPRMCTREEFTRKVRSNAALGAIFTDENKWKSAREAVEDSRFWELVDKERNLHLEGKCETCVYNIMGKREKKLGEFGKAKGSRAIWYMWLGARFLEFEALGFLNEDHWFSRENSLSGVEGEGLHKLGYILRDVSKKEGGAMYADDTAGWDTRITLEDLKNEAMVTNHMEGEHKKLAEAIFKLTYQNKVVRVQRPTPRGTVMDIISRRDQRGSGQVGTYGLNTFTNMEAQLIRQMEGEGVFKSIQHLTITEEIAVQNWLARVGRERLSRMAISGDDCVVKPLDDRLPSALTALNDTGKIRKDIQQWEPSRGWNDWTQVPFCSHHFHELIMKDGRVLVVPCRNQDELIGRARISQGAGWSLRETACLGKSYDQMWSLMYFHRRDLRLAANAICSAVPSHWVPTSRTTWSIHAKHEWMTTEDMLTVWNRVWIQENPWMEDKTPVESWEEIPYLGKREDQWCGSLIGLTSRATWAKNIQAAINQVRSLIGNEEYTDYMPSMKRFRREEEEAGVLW
T3 sequence (P11940 whole entry, the tested form may be a part): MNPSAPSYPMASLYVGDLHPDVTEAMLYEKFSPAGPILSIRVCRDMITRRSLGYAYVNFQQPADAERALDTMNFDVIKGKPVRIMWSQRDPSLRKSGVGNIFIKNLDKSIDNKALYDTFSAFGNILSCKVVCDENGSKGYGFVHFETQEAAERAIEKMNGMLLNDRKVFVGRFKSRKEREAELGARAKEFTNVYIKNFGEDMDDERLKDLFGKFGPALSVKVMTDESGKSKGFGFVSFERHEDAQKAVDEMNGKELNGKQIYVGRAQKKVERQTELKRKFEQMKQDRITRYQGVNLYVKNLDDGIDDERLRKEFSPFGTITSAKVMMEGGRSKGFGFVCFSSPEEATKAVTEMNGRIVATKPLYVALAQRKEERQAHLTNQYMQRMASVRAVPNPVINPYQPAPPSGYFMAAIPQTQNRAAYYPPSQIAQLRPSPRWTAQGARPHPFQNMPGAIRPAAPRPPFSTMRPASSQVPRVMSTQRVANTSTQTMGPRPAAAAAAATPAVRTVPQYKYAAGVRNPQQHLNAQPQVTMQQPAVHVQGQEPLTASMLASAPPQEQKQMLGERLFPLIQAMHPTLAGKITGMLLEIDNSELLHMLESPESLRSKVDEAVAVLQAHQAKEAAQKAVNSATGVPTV
T5 sequence (P65502 whole entry): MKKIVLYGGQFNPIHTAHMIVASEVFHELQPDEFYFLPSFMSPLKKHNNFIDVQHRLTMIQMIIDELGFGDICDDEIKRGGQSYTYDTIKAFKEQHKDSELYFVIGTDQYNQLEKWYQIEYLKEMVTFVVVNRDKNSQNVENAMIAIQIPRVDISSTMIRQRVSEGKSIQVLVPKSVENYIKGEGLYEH
Chain of Glucose-6-phosphate 1-dehydrogenase (P11413 whole entry): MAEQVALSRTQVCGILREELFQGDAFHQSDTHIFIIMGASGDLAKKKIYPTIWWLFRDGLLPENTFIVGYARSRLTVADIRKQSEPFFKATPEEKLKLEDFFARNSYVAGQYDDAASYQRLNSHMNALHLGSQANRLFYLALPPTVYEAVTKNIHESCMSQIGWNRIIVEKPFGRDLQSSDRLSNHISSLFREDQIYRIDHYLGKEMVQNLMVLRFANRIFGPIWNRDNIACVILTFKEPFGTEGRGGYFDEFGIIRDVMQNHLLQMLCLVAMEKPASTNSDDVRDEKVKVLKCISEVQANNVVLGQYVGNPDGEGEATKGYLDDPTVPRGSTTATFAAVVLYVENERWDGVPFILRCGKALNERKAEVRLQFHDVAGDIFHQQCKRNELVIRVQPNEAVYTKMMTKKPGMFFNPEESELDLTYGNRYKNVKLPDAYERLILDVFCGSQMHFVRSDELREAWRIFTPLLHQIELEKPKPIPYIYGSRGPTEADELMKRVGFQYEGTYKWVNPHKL
T4 sequence (P49327 whole entry): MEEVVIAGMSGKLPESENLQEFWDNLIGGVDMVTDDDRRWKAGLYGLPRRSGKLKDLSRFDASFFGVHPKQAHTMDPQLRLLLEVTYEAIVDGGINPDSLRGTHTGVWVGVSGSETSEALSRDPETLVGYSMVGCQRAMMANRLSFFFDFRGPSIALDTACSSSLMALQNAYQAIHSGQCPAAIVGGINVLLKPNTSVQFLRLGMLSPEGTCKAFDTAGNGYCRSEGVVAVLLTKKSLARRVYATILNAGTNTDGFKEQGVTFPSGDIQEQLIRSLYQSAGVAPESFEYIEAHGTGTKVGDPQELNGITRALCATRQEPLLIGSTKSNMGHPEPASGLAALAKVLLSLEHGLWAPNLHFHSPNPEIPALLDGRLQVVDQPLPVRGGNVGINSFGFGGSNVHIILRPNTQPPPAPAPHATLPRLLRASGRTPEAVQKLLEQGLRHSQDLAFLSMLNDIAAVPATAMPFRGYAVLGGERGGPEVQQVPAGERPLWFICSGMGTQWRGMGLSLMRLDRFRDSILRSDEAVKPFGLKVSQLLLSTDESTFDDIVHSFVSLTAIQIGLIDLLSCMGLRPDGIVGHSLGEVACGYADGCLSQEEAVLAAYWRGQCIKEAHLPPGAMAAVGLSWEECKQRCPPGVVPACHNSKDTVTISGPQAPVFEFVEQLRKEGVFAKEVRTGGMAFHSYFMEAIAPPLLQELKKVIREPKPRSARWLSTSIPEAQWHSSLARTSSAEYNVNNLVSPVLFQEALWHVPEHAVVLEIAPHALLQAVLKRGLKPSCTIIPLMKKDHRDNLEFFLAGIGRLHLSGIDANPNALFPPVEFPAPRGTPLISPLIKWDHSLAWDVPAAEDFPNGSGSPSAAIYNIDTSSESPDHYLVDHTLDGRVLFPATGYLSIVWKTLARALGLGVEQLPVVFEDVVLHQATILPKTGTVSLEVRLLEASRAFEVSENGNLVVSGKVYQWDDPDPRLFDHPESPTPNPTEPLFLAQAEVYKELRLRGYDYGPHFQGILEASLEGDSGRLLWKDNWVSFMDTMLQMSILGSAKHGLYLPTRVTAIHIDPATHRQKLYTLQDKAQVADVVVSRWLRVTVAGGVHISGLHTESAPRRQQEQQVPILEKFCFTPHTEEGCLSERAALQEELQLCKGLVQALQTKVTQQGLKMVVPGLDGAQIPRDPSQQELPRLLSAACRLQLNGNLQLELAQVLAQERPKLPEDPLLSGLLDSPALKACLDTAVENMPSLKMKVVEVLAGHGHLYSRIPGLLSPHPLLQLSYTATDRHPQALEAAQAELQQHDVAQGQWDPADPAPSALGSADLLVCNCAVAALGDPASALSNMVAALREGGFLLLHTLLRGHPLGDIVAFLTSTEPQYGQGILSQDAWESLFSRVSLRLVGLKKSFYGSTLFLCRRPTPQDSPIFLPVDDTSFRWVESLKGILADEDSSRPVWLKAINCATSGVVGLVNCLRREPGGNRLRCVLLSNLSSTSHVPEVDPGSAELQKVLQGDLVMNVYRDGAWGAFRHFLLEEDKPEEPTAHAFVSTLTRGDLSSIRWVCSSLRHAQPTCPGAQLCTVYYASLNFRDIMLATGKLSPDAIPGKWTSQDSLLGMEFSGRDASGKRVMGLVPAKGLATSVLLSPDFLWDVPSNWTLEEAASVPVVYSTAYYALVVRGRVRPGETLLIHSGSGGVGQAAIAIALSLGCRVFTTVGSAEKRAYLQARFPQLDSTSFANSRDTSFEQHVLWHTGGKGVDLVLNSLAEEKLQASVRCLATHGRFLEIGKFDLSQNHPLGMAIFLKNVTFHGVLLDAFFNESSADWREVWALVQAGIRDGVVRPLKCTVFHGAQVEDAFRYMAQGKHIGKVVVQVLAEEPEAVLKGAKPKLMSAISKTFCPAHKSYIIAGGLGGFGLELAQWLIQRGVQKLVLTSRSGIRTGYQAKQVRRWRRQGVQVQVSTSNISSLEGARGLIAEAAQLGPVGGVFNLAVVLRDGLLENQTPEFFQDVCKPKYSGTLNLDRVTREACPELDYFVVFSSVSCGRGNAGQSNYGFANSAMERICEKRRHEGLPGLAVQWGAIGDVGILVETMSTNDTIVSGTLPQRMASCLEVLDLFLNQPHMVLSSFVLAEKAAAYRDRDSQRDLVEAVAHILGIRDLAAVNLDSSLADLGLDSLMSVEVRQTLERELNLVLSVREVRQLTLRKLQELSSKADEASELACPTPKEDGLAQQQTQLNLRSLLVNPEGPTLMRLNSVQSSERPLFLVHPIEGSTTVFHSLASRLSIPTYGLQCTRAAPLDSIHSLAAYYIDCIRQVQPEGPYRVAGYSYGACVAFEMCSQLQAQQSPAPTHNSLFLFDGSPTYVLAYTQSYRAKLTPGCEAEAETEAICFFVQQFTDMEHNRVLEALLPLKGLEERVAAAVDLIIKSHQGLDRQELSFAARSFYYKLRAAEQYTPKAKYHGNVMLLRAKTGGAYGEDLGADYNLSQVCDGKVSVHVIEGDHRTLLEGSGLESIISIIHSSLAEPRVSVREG

## O=C(COc1ccc2ccccc2c1)Nc1cccc(C(=O)Nc2ccccc2C(=O)O)c1
[1]
  IC50: 8.71 µM (active)
[2]
  IC50: 2.55 µM (active)
[3]
  EC50: > 53 µM (inactive)
[4]
  IC50: 7.44 µM (active)

## CCC(=O)N(Cc1c(C)nn(-c2ccccc2)c1Cl)c1ccc(Cl)cc1
[2]
  IC50: 7.02 µM (active)
[3]
  EC50: > 53 µM (inactive)
[4]
  IC50: 19.8 µM (active)

## COc1ccc(Nc2cc(Cl)ccc2C(=O)O)cn1
[5]
  IC50: 63.5 µM (active)
[6]
  IC50: > 66 µM (inactive)
[7]
  IC50: 52.2 µM (inactive)

## CCOC(=O)c1sc(N2C(=O)C(O)=C(C(=O)c3ccco3)C2c2ccc([N+](=O)[O-])cc2)nc1C (centres undefined)
[5]
  IC50: 38.1 µM (active)
[8]
  IC50: 5.46 µM (active)
[9]
  IC50: 7.89 µM (active)

## COc1ccc(NC(=O)CN(C)S(=O)(=O)c2ccc3nc(O)oc3c2)cc1
[10]
  EC50: > 150 µM (not active)
[11]
  EC50: > 150 µM (not active)
[12]
  EC50: 47.8 µM (active)
[13]
  EC50: > 150 µM (not active)
[14]
  EC50: > 133 µM (inactive)

## O=C(c1ccc(COc2ccccc2Cl)o1)N1CCCC1
[15]
  AC50: 77.8 µM (active)

## CCS(=O)(=O)c1nnnn1-c1ccccc1S(C)(=O)=O
[16]
  EC50: 11.7 µM (active)
[17]
  IC50: 6.55 µM (active)
[18]
  EC50: > 120 µM (not active)
[19]
  IC50: > 20 µM (inactive)
[20]
  EC50: > 20 µM (inactive)
[21]
  IC50: 9.2 µM (active)
[22]
  IC50: > 20 µM (inactive)
[15]
  AC50: 11.3 µM (active)

## Cc1ccc2[nH]c3c(c2c1)CCCC3NC(=O)CCl (centres undefined)
[10]
  EC50: 13.8 µM (active)
[11]
  EC50: 8.7 µM (active)
[12]
  EC50: > 150 µM (inconclusive)
[13]
  EC50: 7.41 µM (inconclusive)
[23]
  IC50: > 80 µM (inactive)
[15]
  AC50: 2.36 µM (active)
[14]
  EC50: 0.565 µM (active)

## O=C(O)CCN1C(=O)/C(=C\c2cccc(OCC(=O)Nc3ccc(Cl)cc3)c2)SC1=S
[5]
  IC50: 34.9 µM (active)

## O=C(Nc1nnc(S(=O)(=O)N2CCCC2)s1)c1cccc([N+](=O)[O-])c1
[24]
  IC50: 56 µM (inactive)

## N#C/C(=C/c1cn(-c2ccccc2)nc1-c1cccc(S(=O)(=O)N2CCCC2)c1)C(=O)NCc1ccco1
[25]
  IC50: 14.4 µM (active)
[26]
  IC50: 50.1 µM (active)

## Cc1cc([N+](=O)[O-])ccc1NCc1ccco1
[27]
  EC50: 5.96 µM (active)
[2]
  IC50: 23.1 µM (active)
[3]
  EC50: > 53 µM (inactive)
[4]
  IC50: 7.36 µM (active)

## CCCCN(CCCC)c1ccc(C(=O)c2ccccc2C(=O)O)c(O)c1
[5]
  IC50: 44.1 µM (active)

## COc1ccc(Cl)cc1NC(=O)CN(C)S(=O)(=O)c1cccs1
[15]
  AC50: 51.2 µM (active)

## COC(=O)c1cc(C#N)c(NCc2ccccc2)nc1C
[2]
  IC50: 8.02 µM (active)
[3]
  EC50: > 53 µM (inactive)
[4]
  IC50: > 20 µM (inactive)

## O=C(O)/C(=C\c1c(C(=O)O)[nH]c2cc(Cl)cc(Cl)c12)c1ccccc1
[5]
  IC50: 75.5 µM (active)

## O=C(N/N=C/c1cccc([N+](=O)[O-])c1)C(=O)N1CCCCCC1
[24]
  IC50: > 80 µM (inactive)
